What was measured:
[1] = test system: (Na^+, K^+) ATPase of the neuronal membrane; assay: (Na+,K+)ATPase activity of the neuronal membrane (rat brain P2 fraction); assay type: biochemical; settings: concentration 50 (50 nM), incubation with neuronal membranes 37° C. two hours; controls 100; 120 min
Procedure: a. Preparation of the raw mitochondrial fraction of rat brain (Fraction P2):
The procedure used in the preparation of P2 fraction was taken from Morgan e coll., Biochem. Biophys. Acta 241, 37 (1971). (The various operations were carried out at 0° to 4° C.; the xg values are average centrifugal forces).
Adult male Sprague Dawley rats (supplied by Charles River) (body weight 150-175 g) were decapitated and their brains were immediately removed and washed in an ice cold isotonic solution. After excision of the cerebellum, the brains were homogenized by effecting 12 up and down movements in a motor-driven glass and Telfon homogenizer (declared radial clearance 0.25 mm; 800 r.p.m.) using 4 vol. of homogenizing solution (0.32M saccharose containing 1 mM potassium phosphate buffer and […] of disodium EDTA, pH 7.27). The homogenized substance, filtered through four layers of fine gauze, was centrifuged at 1000 r.p.m. for 15 minutes. The resulting pellet was washed with the same initial volume of homogenizing solution and centrifuged as described above. The gathered supernatants were centrifuged at 17,500 r.p.m. for 25 minutes (these conditions of gravitational centrifugal force were used to obtain the maximum enrichment of nervous terminations in the fraction) and the pellet was washed four times in 9 volumes (each time) of homogenizing solution and centrifuged (17,500 r.p.m. for 25 minutes).
The final pellet, known as "P2 fraction" contains as its principal component, whole mitochondria and nervous terminations. The final pellet was homogeneously resuspended with a suitable volume of homogenizing solution with a glass and Teflon homogenizer, and used immediately for the test. […]
ATPase activity was measured by spectrophotometry according to Wallick and coll. […] The (Na^+, K^+)ATPase activity is determined by the difference between the total ATPase activity and the dependent ATPase Mg^2+ activity measured in the presence of 3×10^-5 M of Ouabain. […] The ATPase activity was expressed as International Unit (I.U.) (μmoles hydrolized ATP/mg protein/min). […]

PC12 cells = assay: Neurite sprouting in PC12 cells; assay type: cell-based; settings: 10^-6 M, serum-free vehicle with 50 ng/ml NGF, third day; controls 21.5
Procedure: The cells are then washed three times in a serum-free vehicle. […] This effect is evaluated by counting the number of cells with neurites at the third day.

[2] = parameters: species or system Swiss mice; settings: mouse, in vivo, iv
Procedure: Labelled ganglioside is prepared as described by Suzuki et al. [J. Lipid Res. 13, 687-690 (1972)] and modified by Ghidoni et al. [Ital. J. Biochem. 23, 320-328 (1974)]. The ethyl and isopropyl esters are prepared by esterification of this labelled ganglioside. The specific radioactivity is measured both of the ganglioside and esters.
Swiss mice obtained from Charles River (Calco), weighing about 20-25 g were treated by intravenous route with 10 μC of the products. 2-4-8-12-16 hours after administration, the animals were sacrificed by decapitation and their blood was gathered in heparinized flasks. The nonvolatile radioactivity was determined on blood samples by means of a Packard TRICARB scintillator and then identified with reference to ^3 H ganglioside and to the esters by TLC.

SMILES	% increase in (Na^+, K^+) ATPase activity [1]	% of the no. of cells with neurites at 3rd day (PC12 cells)	t/2 of first phase of blood kinetic curve [2]
CCCCCCCCCCCCC/C=C/[C@@H](O)[C@H](CO[C@@H]1O[C@H](CO)[C@@H](O[C@@H]2O[C@H](CO)[C@H](O[C@@H]3O[C@H](CO)[C@H](O)[C@H](O[C@@H]4O[C@H](CO)[C@H](O)[C@H](O)[C@H]4O)[C@H]3NC(C)=O)[C@H](O[C@]3(C(N)=O)C[C@H](O)[C@@H](NC(C)=O)[C@H]([C@H](O)[C@H](O)CO)O3)[C@H]2O)[C@H](O)[C@H]1O)NC(=O)CCCCCCCCCCCCCCCCC [Amide of GM1, Amide of the ganglioside GM1]	128%	33.3%	–
CCCCCCCCCCCCC/C=C/[C@@H](O)[C@H](CO[C@@H]1O[C@H](CO)[C@@H](O[C@@H]2O[C@H](CO)[C@H](O[C@@H]3O[C@H](CO)[C@H](O)[C@H](O[C@@H]4O[C@H](CO)[C@H](O)[C@H](O)[C@H]4O)[C@H]3NC(C)=O)[C@H](O[C@]3(C(=O)OC)C[C@H](O)[C@@H](NC(C)=O)[C@H]([C@H](O)[C@H](O)CO)O3)[C@H]2O)[C@H](O)[C@H]1O)NC(=O)CCCCCCCCCCCCCCCCC [Methylic ester of GM1, Methyl ester of the ganglioside GM1]	132%	35.7%	–
CCCCCCCCCCCCC/C=C/[C@@H](O)[C@H](CO[C@@H]1O[C@H](CO)[C@@H](O[C@@H]2O[C@H](CO)[C@H](O[C@@H]3O[C@H](CO)[C@H](O)[C@H](O[C@@H]4O[C@H](CO)[C@H](O)[C@H](O)[C@H]4O)[C@H]3NC(C)=O)[C@H](O[C@]3(C(=O)O)C[C@H](O)[C@@H](NC(C)=O)[C@H]([C@H](O)[C@H](O)CO)O3)[C@H]2O)[C@H](O)[C@H]1O)NC(=O)CCCCCCCCCCCCCCCCC [Monosialoganglioside GM1, ganglioside GM1, reference compound]	133%	34.8%	–
CCCCCCCCCCCCC/C=C/[C@@H](O)[C@H](CO[C@@H]1O[C@H](CO)[C@@H](O[C@@H]2O[C@H](CO)[C@H](O[C@@H]3O[C@H](CO)[C@H](O)[C@H](O[C@@H]4O[C@H](CO)[C@H](O)[C@H](O)[C@H]4O)[C@H]3NC(C)=O)[C@H](O[C@]3(C(=O)O)C[C@H](O)[C@@H](NC(C)=O)[C@H]([C@H](O)[C@H](O)CO)O3)[C@H]2O)[C@H](O)[C@H]1O)NC(=O)CCCCCCCCCCCCCCCCC [tritiated ganglioside]	–	–	about three

From patent publication US4713374A, “Ganglioside derivatives” (priority 1984, dated 1987)
